In patent publication US6235707A, “Anticoagulant peptidyl-arginine aldehyde derivatives” (Gyogyszerkutato Intezet Kft., priority 1996, dated 2001):

Experiments:
citrate plasma [1] = assay: prothrombin time (PT) plasma clotting test; format: biochemical
Protocol: (§1) Anticoagulant activity (i.e. inhibition of the proteolytic reactions in the process) is measured by anticoagulant tests, e.g. in the thrombin time (TT), activated partial thromboplastin time (APTT) and prothrombin time (PT) tests [E. J. W. Bovie et al., Mayo Clinic Laboratory Manual of Haemostasis; W. B. Saunders Co., Philadelphia (1971)]. Plasma, inhibited in spontaneous coagulation, e.g. citrate-plasma, is made to coagulate and the required coagulation time is measured. Upon the action of anticoagulants the coagulation time is prolonged proportionally to the inhibition of the reaction(s) in the process. The anticoagulant effect can be characterised by the substance concentration required to prolong the coagulation time twofold compared to the control (IC50). The effect of anticoagulants on individual coagulant proteases is measured by the amidolytic method [R. Lottenberg et al., Methods in Enzymol. 80, 341 (1981); G. Cleason, Blood Coagulation and Fibrinolysis 5, 411 (1994)]. The isolated active factor (e.g. thrombin, fXa) and its chromogen or fluorogen peptide-amide substrate are reacted in the presence or absence of the inhibitor, resp. The enzyme inhibiting action is characterised by the inhibitory constant (IC50) measured during amidolysis.
(§2) In the TT test coagulation is initiated by the thrombin added to the citrate plasma. In the system 22 pmol/ml of thrombin is functioning and its inhibition can be measured on the fibrinogen (one of the natural substrates of thrombin) in the presence of plasma components. In the APTT and PT tests the full coagulation process takes place. Depending on the activator fX is activated either by the extrinsic or the intrinsic pathway. The generated fXa activates prothrombin to thrombin which, in turn, triggers plasma coagulation. The coagulation time is prolonged if the enzymes or one of them is inhibited by the inhibitor. In the APTT and PT tests at most 40 pmol/ml Xa can be generated (this is the full amount of factor X present in both systems) while 150 pmol/ml (APTT) and 350 pmol/ml (PT) of thrombin are generated [B. Kaiser et al., Thromb. Res. 65, 157 (1992)].
(§3) The in vitro anticoagulant effects of the compounds of general formula (I) was measured by the prothrombin time (PT), activated partial thromboplastin time (APTT) and thrombin time (TT) tests [D. Bagdy et al., Thromb. Haemost. 67, 325 (1992)]. The fxa-inhibiting effect of the compounds was also determined using the Bz-Ile-Glu-Gly-Arg-pNA chromogen substrate (see method M6).

isolated human fXa = molecular target: T1, isolated human fXa (Homo sapiens, UniProt P00742); assay: fXa inhibition in solution, amidolytic method on Bz-Ile-Glu-Gly-Arg-pNA chromogen substrate (Method M6); format: biochemical; conditions: Table 3; isolated human fXa, Bz-Ile-Glu-Gly-Arg-pNA; read-out: B: fXa inhibiting IC50
T1 construct: The isolated active factor (e.g. thrombin, fXa) and its chromogen or fluorogen peptide-amide substrate are reacted; purchased SIGMA
Protocol: as §1, §3
Determination of Factor Xa Inhibition in Solution on a 96-well Microtitre Plate
a) By means of phosphate buffer (0.1M sodium phosphate and 0.05M sodium chloride, pH=7.4) 1.3 E/ml solution is prepared from human factor Xa (SIGMA), and 0.1-1.0-10 and 100 μg/ml solutions from the peptide inhibitors. The Bz-Ile-Glu-Gly-Arg-pNA substrate is used in distilled water solution ([…]).
b) From the control and the peptide inhibitor solutions (3 parallel samples of each concentration) 30-30 μl aliquots are placed into the wells. 30 μl of factor Xa, 90 μl of buffer and 150 μl of substrate are added to the peptide solution and the extinction is determined after 10 min. at 405 nm. Thereafter the steps are the same as in M2/c.

citrate plasma [2] = assay: activated partial thromboplastin time (APTT) plasma clotting test; format: biochemical; conditions: Table 3; twofold prolongation compared to control; read-out: A: anticoagulant IC50, APTT
Protocol: as §1, §2, §3

clot-bound fXa = molecular target: T2, clot-bound fXa (Homo sapiens, UniProt P00742); assay: inhibition of plasma clot-bound factor Xa (Methods M1, M2); format: biochemical; conditions: text b187, well below
T2 construct: from tissue; host or cells: clot of recalcified human platelet-rich plasma
Protocol: Plasma-clot was obtained by recalcificating platelet-rich human plasma, and fibrin gel by clotting human fibrinogen with human thrombin. For the activity measures of fXa and thrombin Z-D-Arg-Gly-Arg-pNA or Tos-Gly-Pro-Arg-pNA substrates were used in agreement with Methods M1-M3.
Preparation of Clots from Human Plasma
a) Platelet-rich plasma is prepared by centrifuging a 9:1 mixture of human blood and 3.8% sodium citrate solution for 5 min. at 240×g.
b) 200 μl platelet-rich plasma and 80 μl 40 mM CaCl2 solution are allowed to stand at room temperature for 1 hour. The thus-formed clot is washed with 6×2 ml of 0.9% NaCl solution with gentle stirring to remove the residual enzymes (thrombin and factor Xa). The washing medium is assayed for thrombin-like activity as follows:
c) To 400 μl of washing medium 100 μl of 1 mM Tos-Gly-Pro-Arg-pNA substrate solution is added, the mixture is incubated for 30 min at 37° C., then the reaction is stopped with 100 μl of 50% acetic acid. From this mixture 150 μl aliquots are applied onto a 96-well microtitre plate and the extinction coefficients are measured at 405 nm (ELISA READER SLT Laborinstrument GmbH, Austria). […]
c) From each reaction vessel 150 μl is applied onto a 96 well microtitre plate and extinction coefficients are measured at 405 nm (ELISA READER SLT Laborinstrument GmbH, Austria). […]

thrombin = thrombin (Homo sapiens, UniProt P00734); assay: thrombin time (TT) plasma clotting test; format: biochemical; conditions: Table 3; twofold prolongation compared to control; read-out: A: anticoagulant IC50, TT
Protocol: as §1, §2, §3

plasmin (PL) = plasmin (PL) (Homo sapiens, UniProt P00747); assay: fibrin-plate method, plasmin; format: biochemical; conditions: related to the activity of C1 (1/IC50 = 1)
Text: (§4) The inhibitory effect of the new compounds of the invention on plasmin (PL) as well as on plasmin formation induced by tissue plasminogen activator (tPA) and urokinase (UK) was examined by the fibrin-plate method [D. Bagdy et al.: Thromb. Haemost. 67, 325 (1992)]. Compounds C1 and C5 served as controls. […] V. Jackson et al.: J. Cardiovasc. Pharmacol. 21, 587 (1993))]. In Table 4 the results obtained with the new compounds 1 and 2 as well as those with controls C1 and C5 are presented as an example.

[3] = system: thrombin-induced blood platelet aggregation; assay: ex vivo inhibition of thrombin-induced blood platelet aggregation (PAI) in rabbits after p.o. dosing; design: species or system rabbit; conditions: p.o. 5 mg/kg
Protocol: (§5) The anticoagulant and platelet aggregation inhibiting effect of the compounds of general formula (I) was studied in New Zealand white rabbits ex vivo according to D. Bagdy et al. [Thromb. Haemost. 67, 357 (1992)]. The compounds were dissolved in buffered isotonic saline solution and administered i.v. (0,04-5.0 mg/kg) or by infusion (0.25-5.0 mg/kg/h) or subcutaneously (0.5-6.0 mg/kg) or p.o. (2.5-20 mg/kg). The effect of the compounds was detectable already within 30 minutes following p.o. administration, peak values were attained after 60-180 minutes and the therapeutic level was maintained dose-dependently for 3→6 hours.
(§6) The in vivo effect of ethoxycarbonyl-3-cyclobutyl-D-alanyl-L-prolyl-L-arginine aldehyde (1) is presented in detail in Tables 6 and 7. The corresponding values of C1 are listed as controls. The compound was administered p.o. in doses of 5 mg/kg. The blood samples drawn from the caudal vein in every 30-60 minutes were analysed. The whole blood clotting time (WBCT) and the inhibition of thrombin-induced blood platelet aggregation (PAI) were determined. The activated partial thromboplastin time (APTT) and the thrombin time (TT) in the citrate plasma obtained from the blood sample were also measured. The APTT and TT values are compiled in Table 6 and the WBCT and PAI values in Table 7.

urokinase (UK) = urokinase (UK) (Homo sapiens, UniProt P00749); assay: fibrin-plate method, plasmin formation induced by urokinase; format: biochemical; conditions: related to the activity of C1 (1/IC50 = 1)
Text: as §4

[4] = C. V. Jackson et al. 1993; cited from earlier work
[5] = molecular target: tissue plasminogen activator (tPA) (Homo sapiens, UniProt P00750); assay: fibrin-plate method, plasmin formation induced by tPA; format: biochemical; conditions: related to the activity of C1 (1/IC50 = 1)
Text: as §4

[6] = system: New Zealand white rabbits; assay: ex vivo TT in citrate plasma of rabbits after p.o. dosing; design: species or system rabbit; conditions: p.o. 5 mg/kg, 90 min
Protocol: as §5, §6

T2 sequence (P00742 235-488 limits assumed): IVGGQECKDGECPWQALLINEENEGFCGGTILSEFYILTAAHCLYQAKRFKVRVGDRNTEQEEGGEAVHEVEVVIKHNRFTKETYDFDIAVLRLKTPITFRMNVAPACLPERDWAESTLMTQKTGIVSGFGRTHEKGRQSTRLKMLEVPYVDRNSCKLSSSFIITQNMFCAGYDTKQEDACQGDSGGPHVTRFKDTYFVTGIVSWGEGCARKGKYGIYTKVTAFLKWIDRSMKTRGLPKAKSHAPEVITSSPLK
T2 sequence (P00742 41-179 partner limits assumed): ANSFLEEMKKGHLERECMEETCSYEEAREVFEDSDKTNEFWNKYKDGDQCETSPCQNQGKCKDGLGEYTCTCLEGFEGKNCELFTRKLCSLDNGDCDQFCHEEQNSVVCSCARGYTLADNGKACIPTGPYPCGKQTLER
T1 sequence (P00742 235-488 limits assumed): as the sequence (P00742 235-488 limits assumed) above
T1 sequence (P00742 41-179 partner limits assumed): as the sequence (P00742 41-179 partner limits assumed) above
plasmin (PL), sequence (P00747 581-810 limits assumed, species assumed): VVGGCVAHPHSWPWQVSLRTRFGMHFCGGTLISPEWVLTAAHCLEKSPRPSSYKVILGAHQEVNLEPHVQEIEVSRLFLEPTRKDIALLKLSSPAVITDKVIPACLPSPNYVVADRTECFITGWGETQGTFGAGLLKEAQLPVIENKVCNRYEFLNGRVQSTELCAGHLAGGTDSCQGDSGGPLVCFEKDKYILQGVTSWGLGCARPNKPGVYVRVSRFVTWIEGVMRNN
plasmin (PL), sequence (P00747 97-580 partner limits assumed, species assumed): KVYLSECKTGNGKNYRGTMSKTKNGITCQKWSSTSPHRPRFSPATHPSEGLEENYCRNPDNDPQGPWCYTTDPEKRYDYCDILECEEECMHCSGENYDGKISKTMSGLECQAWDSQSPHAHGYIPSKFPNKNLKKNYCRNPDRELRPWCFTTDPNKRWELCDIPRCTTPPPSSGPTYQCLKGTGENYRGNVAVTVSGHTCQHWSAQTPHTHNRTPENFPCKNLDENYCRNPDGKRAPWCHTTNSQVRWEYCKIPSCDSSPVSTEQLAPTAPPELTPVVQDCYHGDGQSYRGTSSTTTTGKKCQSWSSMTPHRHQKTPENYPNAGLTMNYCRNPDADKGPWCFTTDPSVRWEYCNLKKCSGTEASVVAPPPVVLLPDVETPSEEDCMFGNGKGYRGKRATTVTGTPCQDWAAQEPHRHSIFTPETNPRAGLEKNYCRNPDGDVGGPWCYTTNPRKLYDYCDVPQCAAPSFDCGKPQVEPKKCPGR
tissue plasminogen activator (tPA), sequence (P00750 36-562, species assumed): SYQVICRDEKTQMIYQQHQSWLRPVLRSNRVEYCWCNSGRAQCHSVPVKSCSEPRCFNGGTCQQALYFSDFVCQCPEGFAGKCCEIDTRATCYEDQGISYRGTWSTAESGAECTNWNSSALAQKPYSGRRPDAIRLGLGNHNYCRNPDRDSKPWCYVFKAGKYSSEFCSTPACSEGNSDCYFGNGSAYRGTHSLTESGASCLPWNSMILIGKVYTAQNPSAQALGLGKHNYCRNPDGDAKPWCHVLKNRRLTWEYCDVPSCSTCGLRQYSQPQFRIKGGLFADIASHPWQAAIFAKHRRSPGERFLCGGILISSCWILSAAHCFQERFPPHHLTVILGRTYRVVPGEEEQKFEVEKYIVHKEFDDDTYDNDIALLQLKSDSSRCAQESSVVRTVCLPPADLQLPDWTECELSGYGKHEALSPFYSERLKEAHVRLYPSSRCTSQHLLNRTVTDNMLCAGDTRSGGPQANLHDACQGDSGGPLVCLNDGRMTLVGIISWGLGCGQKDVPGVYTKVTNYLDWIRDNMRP

IC50 (citrate plasma [1]; Table 3, twofold prolongation compared to control, read-out: A: anticoagulant IC50, PT)	IC50 (isolated human fXa)	IC50 (citrate plasma [2])	IC50 (clot-bound fXa)	IC50 (thrombin)	SMILES	B: relative efficiency, PL (plasmin (PL))	PAI (%), percentual inhibition of platelet aggregation ([3]; 0 min)	PAI (%), percentual inhibition of platelet aggregation ([3]; 30 min)	PAI (%), percentual inhibition of platelet aggregation ([3]; 45 min)	PAI (%), percentual inhibition of platelet aggregation ([3]; 60 min)	PAI (%), percentual inhibition of platelet aggregation ([3]; 90 min)	PAI (%), percentual inhibition of platelet aggregation ([3]; 120 min)	PAI (%), percentual inhibition of platelet aggregation ([3]; 180 min)	PAI (%), percentual inhibition of platelet aggregation ([3]; 240 min)	IC50 (citrate plasma [1]; Table 2, concentration prolonging clotting time twofold, read-out: A: anticoagulation IC50, PT)	B: relative efficiency, UK (urokinase (UK))	antifibrinolytic effect in vivo [4]	B: relative efficiency, tPA [5]	TT relative clotting time [6]
1700 nM	36 nM	600 nM	< 1000 nM	190 nM	CC(C)OC(=O)N[C@H](CC1CCC1)C(=O)N1CCC[C@H]1C(=O)N[C@H](C=O)CCCNC(=N)N [Example 3, Isopropoxycarbonyl-3-cyclobutyl-D-alanyl-L-prolyl-L-arginine aldehyde]	–	–	–	–	–	–	–	–	–	–	–	–	–	–
–	–	–	–	–	CN[C@H](Cc1ccccc1)C(=O)N1CCC[C@H]1C(=O)N[C@H](C=O)CCCNC(=N)N [Example C1, D-MePhe-Pro-Arg-H, reference compound]	1.0	1.0%	52.8 ± 14.7%	58.4 ± 15.6%	54.2 ± 11.6%	83.2 ± 8.9%	75.2 ± 12.3%	47.5 ± 20.9%	32.2 ± 16.0%	2930 nM	1.0	insignificant	1.0	10.50 ± 4.59
